The results in this text go back to paper PMC3890372 (Nature communications, 2013).

As usually defined, the Kd is the equilibrium constant for the complex coming apart. Low values mean higher affinity, high ones lower affinity.

Test [1] has as its target T1, human Smo CRD (Smoothened) (Homo sapiens, UniProt Q99835).
T1 sequence (Q99835 65-177): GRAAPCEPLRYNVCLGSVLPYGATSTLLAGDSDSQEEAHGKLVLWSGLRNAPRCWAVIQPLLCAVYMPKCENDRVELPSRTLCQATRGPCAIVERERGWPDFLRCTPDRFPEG
As to the kind of experiment: Bio-Layer Interferometry. The class given is binding.

For test [2], the target named is T2, Drosophila Smo CRD (Smoothened) (Drosophila melanogaster, UniProt P91682).
T2 sequence (P91682 85-202): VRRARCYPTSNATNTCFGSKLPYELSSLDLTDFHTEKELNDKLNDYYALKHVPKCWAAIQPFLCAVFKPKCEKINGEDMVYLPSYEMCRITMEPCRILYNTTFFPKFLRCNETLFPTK
As to the kind of experiment: Bio-Layer Interferometry. The class given is binding.

With `CCCC1O[C@@H]2C[C@H]3[C@@H]4CCC5=CC(=O)C=C[C@]5(C)[C@H]4[C@@H](O)C[C@]3(C)[C@]2(C(=O)CO)O1` (some centres unmarked) [Bud, budesonide], the figures for the Kd in test [1] and in test [2] were 52 ± 16 µM and 120 ± 98 µM, respectively.
